Among the test systems are SK-MEL-5 melanoma; U251 CNS; COLO 205 colon; OVCAR-3 ovarian; SK-MEL-2 melanoma; SN12C renal; CAKI-1 renal; NCI-H23 lung; SNB-75 CNS; NCI/ADR-RES ovarian.
Common to all, as to test: NCI tumour cell line growth inhibition, 48 h

Among the data in PubChem BioAssay (NCI) are GI50 and TGI values, retold here.

The structures appear in SMILES notation. Several values for one entry are separate records, joined by “and”; a condition that tells them apart may be missing. Equal entries are not always repeated.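 Values below derive from 48-hour exposures of cells grown in 96-well plates, with endpoints linearly interpolated between the two concentrations bracketing the appropriate inhibition level. GI50 marks 50% less growth. TGI: concentration producing complete growth inhibition.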

Consider `CCn1c(-c2nonc2N)nc2cnc(Oc3cccc(NC(=O)c4ccc(N(C)C)cc4)c3)cc21`, for which the GI50 was above 25 µM in the assay with SK-MEL-5 melanoma; above 25 µM in the assay with U251 CNS; above 13.5 µM in the assay on COLO 205 colon; above 25 µM in the assay with OVCAR-3 ovarian; above 25 µM in the assay on SK-MEL-2 melanoma; above 25 µM with SN12C renal. Moreover, the GI50 in the assay with CAKI-1 renal was 0.688 µM; in the assay with NCI-H23 lung, above 25 µM; in the assay on SNB-75 CNS it was 0.106 µM; in the assay with NCI/ADR-RES ovarian it was above 25 µM. The TGI in the assay with SK-MEL-5 melanoma, in the assay on U251 CNS, with COLO 205 colon, in the assay on OVCAR-3 ovarian, with SK-MEL-2 melanoma and in the assay on SN12C renal was above 25 µM throughout. Also, the TGI with CAKI-1 renal, in the assay on NCI-H23 lung, in the assay on SNB-75 CNS and in the assay with NCI/ADR-RES ovarian was above 25 µM each time.
For `COc1ccc2c(c1OC)O/C(=C\c1ncc([N+](=O)[O-])n1C)C2=O`, the GI50 in the assay on SK-MEL-5 melanoma was 0.905 µM; in the assay on U251 CNS, 2.95 µM; in the assay on COLO 205 colon it was 1.16 µM; with OVCAR-3 ovarian it was 1.6 µM; in the assay on SK-MEL-2 melanoma, 0.681 µM; with SN12C renal, 1.78 µM. The GI50 in the assay on CAKI-1 renal is 0.376 µM; with NCI-H23 lung, 1.3 µM; in the assay with SNB-75 CNS, 2.14 µM; in the assay with NCI/ADR-RES ovarian, 1.72 µM. Also, the TGI in the assay with SK-MEL-5 melanoma amounted to 2.35 µM; in the assay on U251 CNS it was 13.9 µM; with COLO 205 colon, 2.86 µM; with OVCAR-3 ovarian, 6.16 µM; with SK-MEL-2 melanoma, 1.72 µM; in the assay on SN12C renal it was 8.83 µM. Also, the TGI in the assay with CAKI-1 renal was found to be 2.46 µM; in the assay with NCI-H23 lung, 5.6 µM; in the assay with SNB-75 CNS, 6.85 µM; in the assay on NCI/ADR-RES ovarian, 7.87 µM.
For `COc1ccc(C)cc1NC(=S)C#N`, the TGI with SK-MEL-5 melanoma, in the assay on U251 CNS, in the assay on COLO 205 colon, in the assay with OVCAR-3 ovarian, with SK-MEL-2 melanoma and in the assay on SN12C renal was above 100 µM in each case. Besides, the TGI in the assay on CAKI-1 renal, with NCI-H23 lung, in the assay with SNB-75 CNS and in the assay on NCI/ADR-RES ovarian was above 100 µM throughout.
On to `N#[N+]c1ccc(Nc2ccccc2)cc1`, for which the GI50 with SK-MEL-5 melanoma, in the assay with U251 CNS, in the assay on COLO 205 colon, with OVCAR-3 ovarian, in the assay on SK-MEL-2 melanoma and with SN12C renal was above 50 µg/mL in each case. Moreover, the GI50 with CAKI-1 renal is 1.11 µg/mL; in the assay on NCI-H23 lung it was above 50 µg/mL; in the assay with SNB-75 CNS, above 50 µg/mL; in the assay on NCI/ADR-RES ovarian it was above 50 µg/mL. Further, the TGI with SK-MEL-5 melanoma, in the assay on U251 CNS, in the assay with COLO 205 colon, in the assay on OVCAR-3 ovarian, with SK-MEL-2 melanoma and in the assay on SN12C renal was above 50 µg/mL throughout. Also, the TGI was 19.3 µg/mL with CAKI-1 renal, above 50 µg/mL with NCI-H23 lung, above 50 µg/mL in the assay on SNB-75 CNS and above 50 µg/mL in the assay on NCI/ADR-RES ovarian.
`O=C1Nc2ccc3c(c2/C1=C\c1cc2c(cc1Br)OCO2)OCO3`: the GI50 is 0.429 µM with SK-MEL-5 melanoma; 0.422 µM in the assay with U251 CNS; 0.356 µM in the assay with COLO 205 colon; 0.217 µM in the assay with OVCAR-3 ovarian; 3.4 µM in the assay with SK-MEL-2 melanoma; 0.781 µM with SN12C renal. Besides, the GI50 was 0.331 µM with CAKI-1 renal, 0.857 µM with NCI-H23 lung, 0.189 µM with SNB-75 CNS and 0.364 µM with NCI/ADR-RES ovarian. Also, the TGI in the assay with SK-MEL-5 melanoma was 2.52 µM; with U251 CNS, 1.68 µM; in the assay on COLO 205 colon, 2.66 µM; with OVCAR-3 ovarian it was 0.589 µM; with SK-MEL-2 melanoma it was above 100 µM; with SN12C renal, 6.47 µM. Besides, the TGI in the assay on CAKI-1 renal came out at 2.8 µM; in the assay on NCI-H23 lung, 7.42 µM; in the assay on SNB-75 CNS it was 1.41 µM; in the assay on NCI/ADR-RES ovarian, 4.97 µM.
As to `COc1ccc(C(O)c2cc3c(N)c(C(=O)Nc4cccc(Br)c4C)sc3nc2C)cc1` (centres undefined), the GI50 was 0.143 µM in the assay with SK-MEL-5 melanoma; 0.164 µM in the assay on U251 CNS; 1.04 µM with COLO 205 colon; 0.103 µM with OVCAR-3 ovarian; 1.17 µM in the assay with SK-MEL-2 melanoma; 0.246 µM in the assay on SN12C renal. For the same molecule, the GI50 in the assay with CAKI-1 renal is 0.151 µM; in the assay on NCI-H23 lung it was 0.276 µM; with SNB-75 CNS, 0.0816 µM; in the assay on NCI/ADR-RES ovarian, 0.179 µM. Further, the TGI in the assay on SK-MEL-5 melanoma is 0.922 µM; with U251 CNS, 8.61 µM; with COLO 205 colon, above 11 µM; with OVCAR-3 ovarian it was 1.08 µM; with SK-MEL-2 melanoma, above 33.3 µM; in the assay with SN12C renal it was above 33.3 µM. Further, the TGI was 18.1 µM with CAKI-1 renal, above 33.3 µM with NCI-H23 lung, 11.2 µM with SNB-75 CNS and 2.99 µM with NCI/ADR-RES ovarian.
With `CC1(C)N=C(N)N=C(N)N1c1cccc(CCc2ccccc2)c1`, the GI50 is 0.429 µM in the assay with SK-MEL-5 melanoma; 0.113 µM with U251 CNS; 0.574 µM in the assay with COLO 205 colon; 0.44 µM with OVCAR-3 ovarian; 1.94 µM in the assay with SK-MEL-2 melanoma; 0.456 µM in the assay on SN12C renal. The GI50 is 40.2 µM with CAKI-1 renal, 0.551 µM in the assay with NCI-H23 lung, 0.707 µM in the assay with SNB-75 CNS and above 100 µM with NCI/ADR-RES ovarian. Besides, the TGI with SK-MEL-5 melanoma was 8.82 µM; in the assay with U251 CNS, above 100 µM; in the assay with COLO 205 colon it was 16.9 µM; in the assay on OVCAR-3 ovarian, 24.9 µM; in the assay on SK-MEL-2 melanoma it was above 67.5 µM; in the assay with SN12C renal, above 100 µM. The TGI is above 100 µM in the assay with CAKI-1 renal, above 100 µM in the assay with NCI-H23 lung, 46.4 µM in the assay on SNB-75 CNS and above 100 µM in the assay on NCI/ADR-RES ovarian.
For the molecule `COc1cc(NC2CCCCC2O)c2nc(-c3ccc(Cl)cc3)ccc2c1` (centres undefined), the GI50 in the assay with SK-MEL-5 melanoma is 10.6 µM; in the assay on U251 CNS, 3.88 µM; in the assay with COLO 205 colon it was 6.87 µM; in the assay with OVCAR-3 ovarian it was 10.5 µM; with SK-MEL-2 melanoma, 12.5 µM; in the assay on SN12C renal, 9.96 µM. The GI50 in the assay on CAKI-1 renal is 4.73 µM; with NCI-H23 lung, 6.15 µM; with SNB-75 CNS, 5.04 µM; in the assay on NCI/ADR-RES ovarian it was 6.1 µM. For the same molecule, the TGI with SK-MEL-5 melanoma is 23.1 µM; in the assay with U251 CNS, above 100 µM; in the assay with COLO 205 colon it was 20.7 µM; with OVCAR-3 ovarian, 32.8 µM; with SK-MEL-2 melanoma, 59.3 µM; in the assay with SN12C renal, 53.1 µM. Moreover, the TGI was 63.2 µM in the assay with CAKI-1 renal, 61.7 µM in the assay on NCI-H23 lung, 59.1 µM in the assay on SNB-75 CNS and above 100 µM with NCI/ADR-RES ovarian.
As to `COc1ccc(C2=Nn3c(nnc3-n3nc(C)cc3C)SC2)cc1`, the GI50 with SK-MEL-5 melanoma is 0.0489 µM; with U251 CNS, 0.0532 µM; with COLO 205 colon, 0.046 µM; in the assay with OVCAR-3 ovarian it was 0.0346 µM; in the assay with SK-MEL-2 melanoma it was 0.0599 µM; in the assay with SN12C renal, 0.298 µM. Moreover, the GI50 in the assay on CAKI-1 renal is 0.0443 µM; in the assay with NCI-H23 lung it was 0.18 µM; with SNB-75 CNS it was 0.0214 µM; with NCI/ADR-RES ovarian, 0.0536 µM. In addition, the TGI is 4.23 µM in the assay with SK-MEL-5 melanoma; above 100 µM in the assay on U251 CNS; 0.218 µM in the assay on COLO 205 colon; 0.114 µM in the assay on OVCAR-3 ovarian; above 100 µM in the assay with SK-MEL-2 melanoma; above 100 µM with SN12C renal. Besides, the TGI in the assay on CAKI-1 renal was above 43.4 µM; with NCI-H23 lung it was above 100 µM; in the assay on NCI/ADR-RES ovarian, above 100 µM.
Consider `CC(=O)OCC1OC(n2c3c(cc(C#N)c2=S)CCCC3)C(OC(C)=O)C(OC(C)=O)C1OC(C)=O` (centres undefined), for which the TGI was above 100 µM in the assay on SK-MEL-5 melanoma; > 100 µM and 53 µM with U251 CNS; above 100 µM with COLO 205 colon; above 100 µM in the assay on OVCAR-3 ovarian; above 100 µM in the assay with SK-MEL-2 melanoma; above 100 µM in the assay on SN12C renal. In addition, the TGI with CAKI-1 renal is above 100 µM; in the assay with NCI-H23 lung, above 100 µM; in the assay with SNB-75 CNS, > 100 µM and 50.4 µM; in the assay on NCI/ADR-RES ovarian, above 100 µM. Also, the GI50 with U251 CNS was > 100 µM and 21.9 µM; with OVCAR-3 ovarian, 45.2 µM and > 100 µM; in the assay on SK-MEL-2 melanoma, > 100 µM and 27 µM; in the assay with CAKI-1 renal it was > 100 µM and 42.1 µM; in the assay with SNB-75 CNS, > 100 µM and 14.6 µM.
As for `COc1cc2c(c(OC)c1OC)C(=O)NCCC2`, the TGI with SK-MEL-5 melanoma, in the assay with U251 CNS, in the assay with COLO 205 colon, with OVCAR-3 ovarian, in the assay on SK-MEL-2 melanoma and in the assay with SN12C renal was above 100 µM throughout. In addition, the TGI with CAKI-1 renal, with NCI-H23 lung, in the assay on SNB-75 CNS and in the assay on NCI/ADR-RES ovarian was above 100 µM throughout.
